From PMC8743659, “C1632 suppresses the migration and proliferation of non‐small‐cell lung cancer cells involving LIN28 and FGFR1 pathway” (Journal of Cellular and Molecular Medicine, 2021)
Entries after “also recorded” stand apart in the source; their conditions may differ.

Legend:
[1] = Tissue distribution study; assay type: in vivo, mice; conditions: mouse, 20 mg/kg
Description: Agilent 1290 UHPLC system and 6420 series Triple‐Quadrupole Tandem Mass Spectrometer (Agilent Corporation) maintained at 35°C with a ZORBAX Eclipse Plus C18 column (1.8 μm, 2.1 × 50 mm). The mobile phase was a gradient elution program consisting of solvent A with solvent B at a flow rate of 0.4 ml/min. Mobile phase A was 0.1% formic acid in water (v/v), and mobile phase B was acetonitrile. The optimal gradient elution program was as follows: 0–0.5 min, linear from 80% to 5% A; 0.5–1.5 min, 5% A; 1.5–1.6 min, linear from 5% to 80% A. The post‐time was 1.3 min for equilibration of the column and the total runtime was 1.8 min. The mass spectrometer was acquired in an ESI‐positive mode with multiple reaction monitoring (MRM). Instrument control and data acquisition were performed on the MassHunter Agilent Software (version B.07.00).
The desolation gas (nitrogen) flow was set to 10 L/h: the capillary voltage: 4000 V; nebulizing gas and drying gas (both nitrogen): 45 psi and 350°C, respectively. The MRM mode with m/z 282.2→76.9 for C1632 and m/z 282.1→194.0 for IS was used for quantitative analysis.
Twenty‐four mice were randomly divided into four groups (six mice for each group, one group for each time point) and received 20 mg/kg […] of C1632 by oral administration. The mice were euthanized by decapitation at 0 (blank group), 0.25, 2 and 6 h after C1632 was given. Tissues were collected and washed with normal saline, then homogenized and subjected to sample preparation. Subsequently, the concentration of C1632 was determined by UHPLC‐MS/MS.

A549 cells [2] = experiment: Annexin V/PI apoptosis assay; assay type: cell-based, human; conditions: A549, 15, 30 or 60 mg/L, 5 days
Description: (§1) Cells were seeded in 6 cm^2 dish with a density of 3.0 × 10^5 cells per dish and treated with C1632 with final concentration of 15, 30, and 60 mg/L or 0.01% DMSO for 5 days. Then the assay was performed following the protocol provided by the Annexin V/PI Apoptosis Kit (Sigma) and was assessed on a flow cytometer (BD FACSCalibur, BD Biosciences).

A549R cells [3] = experiment: Annexin V/PI apoptosis assay; assay type: cell-based, human; conditions: A549R, 15, 30 or 60 mg/L, 5 days
Description: as §1

A549 cells [4] = experiment: Cell cycle distribution analysis (flow cytometry); assay type: cell-based, human; conditions: A549, 15, 30 and 60 mg/L, 5 days, dose-dependent
Description: Cells were cultured in the absence or presence of 15, 30, and 60 mg/L of C1632 or 0.01% DMSO for 5 days, trypsinized, washed, and stained with propidium iodide before cell cycle distribution was assessed on a flow cytometer (BD FACSCalibur, BD Biosciences).

A549 cells [5] = experiment: MTT cell viability assay; assay type: cell-based, human; conditions: A549, high dose 60 mg/L
Description: (§2) The cell viability of MRC5, A549, and A549R were assessed by the 3‐(4,5‐dimethylthiazol‐2‐yl)‐2,5‐diphenyltetrazolium bromide (MTT) assay.[39] Cells were treated with indicated concentration of C1632 or 0.01% DMSO (Control) for 48 h before 20 μl/well MTT (0.5 mg/ml) was added for another 4 h. The reaction product formazan was dissolved in 100 μl DMSO and the absorbance at 560 nm was determined by the spectrophotometer (DTX880, Beckman Coulter).

A549R cells [6] = experiment: MTT cell viability assay; assay type: cell-based, human; conditions: high dose 60 mg/L
Description: as §2

MRC5 cells = experiment: MTT cell viability assay; assay type: cell-based, human; conditions: MRC5, high dose 60 mg/L
Description: as §2

LIN28 = experiment: qPCR of LIN28 mRNA in NSCLC cells; assay type: cell-based, human; conditions: A549 and A549R cells, 15, 30 and 60 mg/L, 5 days; especially in A549R
Description: Total RNA was extracted using RNAiso Plus (Takara) according to the manufacturer's instructions. cDNA was synthesized using PrimeScript II first‐strand cDNA Synthesis Kit (Takara), followed by amplification with RealStar Power SYBR Mixture (GenStar). miRNAs were quantified using the stem‐loop method, and U6 snRNA was adopted as internal control. Specific primer sequences were designed as previously reported.[40] qPCR was carried out with a LightCycler 480 Real‐Time PCR system (Roche). Data were analysed using the comparative Ct (2−ΔΔCt) method.[41] All experiments were performed in three independent experiments. qPCR primers for mRNA detection were as follows: GAPDH‐forward 5′‐[…]‐3′; GAPDH‐reverse 5′‐[…]‐3′; LIN28A‐forward 5′‐[…]‐3′; LIN28A‐reverse 5′‐GCGGTCATGGACA GGAAGCC‐3′; LIN28B‐forward 5′‐[…]‐3′; LIN28B‐reverse 5′‐[…]‐3′.

[7] = test system: focal adhesion kinase (FAK); experiment: Immunofluorescence assay of FAK; assay type: cell-based, human; conditions: A549R cells, 5 days, concentration-dependent
Description: Performing the immunofluorescence (IF) assay as previously described.[39] Briefly, cells were seeded to slide, fixed with 4% paraformaldehyde, and permeabilized using 0.5% Triton X‐100. Next, cells were incubated with primary antibodies against FAK (CST), followed by incubating with secondary antibodies (DyLight 488‐conjugated anti‐mouse). DAPI was used to stain the nuclear. The fluorescence image was captured by using Nikon Ti microscope and the quantitative analysis was carried out by ImageJ.

[8] = test system: matrix metalloproteinase-9 (MMP-9); experiment: Western blot of MMP-9; assay type: cell-based, human; conditions: A549 and A549R cells, 5 days
Description: The total cell protein was extracted and denaturized at 95°C for 10 min. Samples were separated in SDS‐PAGE gel, then transferred to a PVDF membrane. Then this membrane was blocked with 5% non‐fat milk (solved in TBST) for 2.5 h at room temperature. Blots were probed with relevant primary antibodies against FGFR1 (CST), p‐FGFR1 (CST), MAPK (CST), p‐MAPK (CST), FAK (CST), p‐FAK (CST), MMP‐9 (CST), LIN28B (CST), GAPDH (CST), and β‐actin (proteintech) overnight at 4°C, respectively. Then the lanes were detected with HRP‐conjugated secondary antibodies and visualized using WESTAR SUPERNOVA kit (CYANAGEN).

A549R xenograft tumours = experiment: NSCLC A549R xenograft model; assay type: in vivo, mice
Description: A total of 1.0 × 10^6 A549R cells were inoculated subcutaneously into the dorsal flank of the nude mice in 100 µl phosphate‐buffered saline (PBS). Mice were randomly divided into control and C1632 treatment groups (n = 4 per group). Mice were i.p. injected every other day for 18 days (A549R) at a dose of 30 mg/kg in 100 µl PBS per mouse. The tumours were resected, and their size was estimated from the measurements of weight or the longest diameter across the tumour and the corresponding perpendicular diameter.

level of C1632 in the brain [1]: remained low
tissues with the highest level of C1632 ([1]; 0.25 h, followed by kidney, heart and spleen): highest in the lung and liver
Tmax ([1]; tissues (major organs), homogenized, oral administration, sampled at 0.25, 2 and 6 h, read-out: time of peak concentration in major organs): 15 min
distribution and foci formation of FAK [7]: reduced
Compound: CC(=O)N(C)c1cccc(-c2ccc3nnc(C)n3n2)c1 [C1632]
apoptosis (A549 cells [2]): induces apoptosis
apoptosis (A549R cells [3]): limited effects; also recorded: did not significantly increase
cell cycle distribution (A549 cells [4]): arrested A549 and A549R cells at the G0/G1 phase
cell viability (A549 cells [5]): decreased the viability
cell viability (A549R cells [6]): decreased the viability
cytotoxicity on normal foetal lung fibroblast cells (MRC5 cells): almost had no cytotoxicity
LIN28 mRNA levels (LIN28): decreased
expression of MMP-9 [8]: efficiently decreased
body weight of mice (A549R xenograft tumours; 30 mg/kg every 2 days for 18 days): did not affect
growth of xenograft tumour cells (tumour volume over treatment period) (A549R xenograft tumours; 30 mg/kg every 2 days for 18 days, time-dependent): suppressed
tumour size (weight), mean ± SD (A549R xenograft tumours; 30 mg/kg every 2 days, after 18 days, n = 4, untreated 2.35 ± 0.43 g, p < 0.05): 1.36 ± 0.27 g
